The record followed here is ChEMBL document CHEMBL5058647, “Data for DCP probe JNJ-9350” (2022).

Test [1] addresses T1, 5-hydroxytryptamine receptor 1B (Homo sapiens, UniProt P28222). As to the kind of experiment: GPCRScan assay: inhibition of 5-HT1B. Further details: radioligand conc. used [nm] 0.6 – 1.5, parental cells stable HEK.
Test [2] deals with 5-hydroxytryptamine receptor 1D (Homo sapiens, UniProt P28221). As to the kind of experiment: GPCRScan assay: inhibition of 5-HT1D. Further details: radioligand conc. used [nm] 1.0 – 2.0, parental cells HEKT.
Sequence of 5-hydroxytryptamine receptor 1D (P28221 whole entry): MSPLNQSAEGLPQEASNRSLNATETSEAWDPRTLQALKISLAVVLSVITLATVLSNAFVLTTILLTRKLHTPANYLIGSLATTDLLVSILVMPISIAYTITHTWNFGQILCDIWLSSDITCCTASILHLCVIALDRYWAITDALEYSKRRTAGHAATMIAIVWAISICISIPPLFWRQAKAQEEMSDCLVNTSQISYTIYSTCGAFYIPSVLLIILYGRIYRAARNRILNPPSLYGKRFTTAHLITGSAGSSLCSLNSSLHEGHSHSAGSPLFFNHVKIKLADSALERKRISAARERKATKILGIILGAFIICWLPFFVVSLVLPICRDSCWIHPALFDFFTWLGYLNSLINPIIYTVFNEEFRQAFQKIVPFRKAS
For test [3], the target named is T2, 5-hydroxytryptamine receptor 2B (Homo sapiens, UniProt P41595). As to the kind of experiment: GPCRScan assay: inhibition of 5-HT2B. On the set-up: radioligand conc. used [nm] 1.0 – 2.0, parental cells stable HEK.
T2 sequence (P41595 whole entry): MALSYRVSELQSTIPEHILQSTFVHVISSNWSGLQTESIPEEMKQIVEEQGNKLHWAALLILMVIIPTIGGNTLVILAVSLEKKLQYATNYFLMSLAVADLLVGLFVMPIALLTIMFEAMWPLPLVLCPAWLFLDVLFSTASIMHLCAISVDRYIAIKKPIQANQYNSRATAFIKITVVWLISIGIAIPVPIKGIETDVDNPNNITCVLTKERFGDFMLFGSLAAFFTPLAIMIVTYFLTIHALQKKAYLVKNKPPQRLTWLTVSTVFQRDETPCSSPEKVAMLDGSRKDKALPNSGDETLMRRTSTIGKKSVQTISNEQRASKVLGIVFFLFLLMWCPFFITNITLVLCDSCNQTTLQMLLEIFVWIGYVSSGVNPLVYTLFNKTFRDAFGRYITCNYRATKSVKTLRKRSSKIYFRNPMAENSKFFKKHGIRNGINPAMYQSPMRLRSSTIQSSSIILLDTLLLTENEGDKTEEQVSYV
For test [4], the target named is Alpha-2A adrenergic receptor (Homo sapiens, UniProt P08913). As to the kind of experiment: GPCRScan assay: inhibition of Alpha2A. On the set-up: radioligand conc. used [nm] 1.0 – 3.0, parental cells stable MDCK.
For test [5], the target named is Alpha-2B adrenergic receptor (Homo sapiens, UniProt P18089). As to the kind of experiment: GPCRScan assay: inhibition of Alpha2B. Further details: radioligand conc. used [nm] 1.5 – 2.0, parental cells HEKT.
Sequence of Alpha-2B adrenergic receptor (P18089 whole entry): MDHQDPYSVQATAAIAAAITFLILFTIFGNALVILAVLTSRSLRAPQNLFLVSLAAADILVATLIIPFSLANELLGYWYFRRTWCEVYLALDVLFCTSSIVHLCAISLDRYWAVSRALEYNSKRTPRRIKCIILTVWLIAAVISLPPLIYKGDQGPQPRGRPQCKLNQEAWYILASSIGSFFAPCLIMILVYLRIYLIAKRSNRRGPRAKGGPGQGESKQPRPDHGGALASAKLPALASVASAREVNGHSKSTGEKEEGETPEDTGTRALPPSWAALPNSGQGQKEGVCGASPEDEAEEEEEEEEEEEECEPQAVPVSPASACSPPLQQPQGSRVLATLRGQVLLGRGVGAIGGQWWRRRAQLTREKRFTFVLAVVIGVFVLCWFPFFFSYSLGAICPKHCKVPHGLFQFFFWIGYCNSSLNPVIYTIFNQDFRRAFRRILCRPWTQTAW
Test [6] deals with Sigma intracellular receptor 2 (Homo sapiens, UniProt Q5BJF2). As to the kind of experiment: GPCRScan assay: inhibition of Sigma 2. On the set-up: radioligand conc. used [nm] 5.0, parental cells HEKT.
Sequence of Sigma intracellular receptor 2 (Q5BJF2 whole entry): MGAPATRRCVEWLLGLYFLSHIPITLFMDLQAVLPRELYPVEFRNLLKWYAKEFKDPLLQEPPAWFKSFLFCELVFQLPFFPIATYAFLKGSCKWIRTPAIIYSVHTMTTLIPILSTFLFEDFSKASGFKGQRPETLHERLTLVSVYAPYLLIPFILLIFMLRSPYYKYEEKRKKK
The target in test [7] is T3, Spermine oxidase (Homo sapiens, UniProt Q9NWM0). As to the kind of experiment: Horseradish Peroxidase (HRP) Fluorescence Assay.
T3 sequence (Q9NWM0 whole entry): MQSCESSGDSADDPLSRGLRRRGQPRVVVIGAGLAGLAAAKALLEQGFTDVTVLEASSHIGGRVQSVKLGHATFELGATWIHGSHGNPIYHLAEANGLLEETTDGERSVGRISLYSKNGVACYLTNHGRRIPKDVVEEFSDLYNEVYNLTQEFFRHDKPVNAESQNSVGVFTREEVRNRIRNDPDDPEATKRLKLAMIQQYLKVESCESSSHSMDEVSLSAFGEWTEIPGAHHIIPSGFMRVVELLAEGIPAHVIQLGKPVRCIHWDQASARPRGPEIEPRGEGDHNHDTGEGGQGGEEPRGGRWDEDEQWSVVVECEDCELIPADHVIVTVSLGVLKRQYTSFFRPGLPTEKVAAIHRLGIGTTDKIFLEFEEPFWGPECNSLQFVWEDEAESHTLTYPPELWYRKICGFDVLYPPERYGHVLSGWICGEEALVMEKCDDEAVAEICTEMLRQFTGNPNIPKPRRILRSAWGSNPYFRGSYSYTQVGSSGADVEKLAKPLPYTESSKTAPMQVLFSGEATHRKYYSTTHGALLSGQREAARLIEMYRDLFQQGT
For test [8], the target named is T3, Spermine oxidase. As to the kind of experiment: SMOX CETSA assay.
Test [9] deals with Lysine-specific histone demethylase 1A (Homo sapiens, UniProt O60341). As to the kind of experiment: HyPerBlu KDM1A enzymatic assay.
Test [10] has as its target T1, 5-hydroxytryptamine receptor 1B. As to the kind of experiment: 5-HT1B (h) CEREP ligand profiling. The following applies: filed as antagonist, Compound concentration 10.0 uM.
Test [11] concerns the target 5-hydroxytryptamine receptor 2A (Homo sapiens) (UniProt P28223). As to the kind of experiment: 5-HT2A (h) CEREP ligand profiling. The following applies: filed as agonist, Compound concentration 10.0 uM.
Test [12] addresses T2, 5-hydroxytryptamine receptor 2B. As to the kind of experiment: 5-HT2B (h) CEREP ligand profiling. To be noted: filed as agonist, Compound concentration 10.0 uM.
For test [13], the target named is Adenosine receptor A1 (Homo sapiens) (UniProt P30542). As to the kind of experiment: A1 (h) CEREP ligand profiling. To be noted: filed as antagonist, Compound concentration 10.0 uM.
In test [14] the target is Adenosine receptor A2a (Homo sapiens) (UniProt P29274). As to the kind of experiment: A2A (h CEREP ligand profiling. The following applies: filed as agonist, Compound concentration 10.0 uM.
Sequence of Adenosine receptor A2a (Homo sapiens) (P29274 whole entry): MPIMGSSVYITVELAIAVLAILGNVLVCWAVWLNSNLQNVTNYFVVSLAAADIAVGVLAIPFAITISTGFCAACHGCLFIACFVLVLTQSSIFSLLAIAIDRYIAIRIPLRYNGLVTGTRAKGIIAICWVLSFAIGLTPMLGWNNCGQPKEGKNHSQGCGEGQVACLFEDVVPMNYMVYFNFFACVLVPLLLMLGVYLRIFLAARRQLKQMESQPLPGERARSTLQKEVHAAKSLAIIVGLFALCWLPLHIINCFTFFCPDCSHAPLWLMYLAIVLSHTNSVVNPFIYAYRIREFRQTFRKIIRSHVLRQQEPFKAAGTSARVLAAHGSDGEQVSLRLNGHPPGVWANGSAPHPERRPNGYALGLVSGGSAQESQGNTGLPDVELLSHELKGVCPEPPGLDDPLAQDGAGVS
In test [15] the target is Adenosine receptor A3 (Homo sapiens) (UniProt P0DMS8). As to the kind of experiment: A3 (h) CEREP ligand profiling. The following applies: filed as agonist, Compound concentration 10.0 uM.
Test [16] concerns the target Cholecystokinin receptor type A (Homo sapiens) (UniProt P32238). As to the kind of experiment: CCK1 (CCKA) (h) CEREP ligand profiling. To be noted: filed as agonist, Compound concentration 10.0 uM.
The target of test [17] is Kappa-type opioid receptor (Homo sapiens, UniProt P41145). As to the kind of experiment: kappa (h) (KOP) CEREP ligand profiling. To be noted: filed as agonist, Compound concentration 10.0 uM.
For test [18], the target named is T4, Muscarinic acetylcholine receptor M4 (Homo sapiens) (UniProt P08173).
T4 sequence (whole entry): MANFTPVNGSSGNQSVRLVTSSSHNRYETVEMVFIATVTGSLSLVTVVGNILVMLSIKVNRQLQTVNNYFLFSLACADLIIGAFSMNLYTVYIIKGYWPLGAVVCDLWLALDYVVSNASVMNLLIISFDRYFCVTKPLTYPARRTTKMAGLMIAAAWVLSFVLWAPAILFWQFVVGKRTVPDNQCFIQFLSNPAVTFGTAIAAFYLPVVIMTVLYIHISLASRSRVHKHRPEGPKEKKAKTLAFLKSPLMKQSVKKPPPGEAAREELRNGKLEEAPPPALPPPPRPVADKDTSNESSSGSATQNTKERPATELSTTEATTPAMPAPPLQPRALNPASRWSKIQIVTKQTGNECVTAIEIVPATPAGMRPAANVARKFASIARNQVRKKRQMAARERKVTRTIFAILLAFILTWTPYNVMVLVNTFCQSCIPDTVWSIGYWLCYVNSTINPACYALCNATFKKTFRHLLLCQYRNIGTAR
As to the kind of experiment: M4 (h) CEREP ligand profiling. To be noted: filed as antagonist, Compound concentration 10.0 uM.

For test [19], the target named is Melatonin receptor type 1A (Homo sapiens) (UniProt P48039). As to the kind of experiment: MT1 (ML1A) (h) CEREP ligand profiling. To be noted: filed as agonist, Compound concentration 10.0 uM.
The target of test [20] is Substance-K receptor (Homo sapiens) (UniProt P21452). As to the kind of experiment: NK2 (h) CEREP ligand profiling. To be noted: filed as agonist, Compound concentration 10.0 uM.
Sequence of Substance-K receptor (Homo sapiens) (P21452 whole entry): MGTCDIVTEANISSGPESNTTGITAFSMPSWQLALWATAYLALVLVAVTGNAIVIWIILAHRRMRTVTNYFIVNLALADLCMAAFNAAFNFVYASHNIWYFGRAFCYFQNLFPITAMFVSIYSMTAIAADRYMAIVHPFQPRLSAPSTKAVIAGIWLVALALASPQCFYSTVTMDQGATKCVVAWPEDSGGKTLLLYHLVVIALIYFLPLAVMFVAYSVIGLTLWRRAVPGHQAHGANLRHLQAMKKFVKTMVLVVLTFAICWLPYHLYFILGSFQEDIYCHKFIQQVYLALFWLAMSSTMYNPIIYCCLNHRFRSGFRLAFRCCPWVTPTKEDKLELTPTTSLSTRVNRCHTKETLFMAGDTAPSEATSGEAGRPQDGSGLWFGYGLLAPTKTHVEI
For test [21], the target named is 3',5'-cyclic-AMP phosphodiesterase 4D (Homo sapiens) (UniProt Q08499). As to the kind of experiment: PDE4D2 (h) CEREP ligand profiling. The following applies: Compound concentration 10.0 uM.
Test [22] is filed under the species Homo sapiens. As to the kind of experiment: sigma (non-selective) (h) CEREP ligand profiling. To be noted: filed as agonist, Compound concentration 10.0 uM.
The target in test [23] is Alpha-2B adrenergic receptor (Homo sapiens) (UniProt P18089). The following applies: Compound concentration 10.0 uM.
Sequence of Alpha-2B adrenergic receptor (Homo sapiens) (P18089 whole entry): as the sequence (P18089 whole entry) above
Test [24] concerns the target Alpha-2C adrenergic receptor (Homo sapiens) (UniProt P18825). The following applies: Compound concentration 10.0 uM.
The target of test [25] is Alpha-1D adrenergic receptor (Homo sapiens) (UniProt P25100). The following applies: Compound concentration 10.0 uM.
Sequence of Alpha-1D adrenergic receptor (Homo sapiens) (P25100 whole entry): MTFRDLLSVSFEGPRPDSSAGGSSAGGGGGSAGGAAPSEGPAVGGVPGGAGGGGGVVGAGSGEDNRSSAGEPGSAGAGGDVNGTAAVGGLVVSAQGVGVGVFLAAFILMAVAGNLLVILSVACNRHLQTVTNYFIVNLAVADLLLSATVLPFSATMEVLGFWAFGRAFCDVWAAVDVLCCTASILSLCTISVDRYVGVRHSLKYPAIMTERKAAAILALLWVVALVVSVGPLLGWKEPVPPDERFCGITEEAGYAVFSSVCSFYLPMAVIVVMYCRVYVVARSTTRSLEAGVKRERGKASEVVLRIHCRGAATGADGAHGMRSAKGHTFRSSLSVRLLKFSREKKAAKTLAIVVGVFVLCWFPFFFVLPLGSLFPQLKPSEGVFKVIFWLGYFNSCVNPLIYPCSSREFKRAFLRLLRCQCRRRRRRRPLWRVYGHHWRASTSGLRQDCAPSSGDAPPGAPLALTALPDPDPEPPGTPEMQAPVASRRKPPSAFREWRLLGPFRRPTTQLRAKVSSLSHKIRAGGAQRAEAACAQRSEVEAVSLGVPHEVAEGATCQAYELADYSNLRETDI
In test [26] the target is D(3) dopamine receptor (Homo sapiens, UniProt P35462). As to the kind of experiment: GPCRScan assay: inhibition of D3. On the set-up: radioligand conc. used [nm] 0.5 – 1.8, parental cells HEKT.
The target in test [27] is D(4) dopamine receptor (Homo sapiens, UniProt P21917). As to the kind of experiment: GPCRScan assay: inhibition of D4. On the set-up: radioligand conc. used [nm] 0.6 – 1.7, parental cells Stable HEK.
Test [28] concerns the target Sodium-dependent dopamine transporter (Homo sapiens, UniProt Q01959). As to the kind of experiment: GPCRScan assay: inhibition of DAT. Further details: radioligand conc. used [nm] 3.6 – 16.0, parental cells stable HEK.
Test [29] has as its target Alpha-1B adrenergic receptor (Homo sapiens, UniProt P35368). As to the kind of experiment: GPCRScan assay: inhibition of Alpha1B. Further details: radioligand conc. used [nm] 0.3 – 1.0, parental cells stable HEK.
Test [30] deals with Muscarinic acetylcholine receptor M4 (Homo sapiens, UniProt P08173). As to the kind of experiment: GPCRScan assay: inhibition of M4. On the set-up: radioligand conc. used [nm] 0.3 – 1.0, parental cells stable CHO.
Test [31] has as its target T3, Spermine oxidase. As to the kind of experiment: HyPerBlu SMOX enzymatic assay.
The target in test [32] is 5-hydroxytryptamine receptor 6 (Homo sapiens) (UniProt P50406). To be noted: Compound concentration 10.0 uM.
The target of test [33] is GABA-A receptor; anion channel (Rattus norvegicus) (UniProt O09028+P15431+P18506+P18508+P19969+P20236+P23574+P23576+P28471+P28473+P30191+P62813+P63079+P63138+Q91ZM7+Q9ES14). To be noted: Compound concentration 10.0 uM.

pKi: −log10 of the molar value. Values joined by “and” are separate entries in the source; they are usually repeats but may differ in a detail not shown here. Equal values may be shown once. Active and inactive are the calls of the source. The rule behind the calls is not given here.

T1 sequence (P28222 whole entry): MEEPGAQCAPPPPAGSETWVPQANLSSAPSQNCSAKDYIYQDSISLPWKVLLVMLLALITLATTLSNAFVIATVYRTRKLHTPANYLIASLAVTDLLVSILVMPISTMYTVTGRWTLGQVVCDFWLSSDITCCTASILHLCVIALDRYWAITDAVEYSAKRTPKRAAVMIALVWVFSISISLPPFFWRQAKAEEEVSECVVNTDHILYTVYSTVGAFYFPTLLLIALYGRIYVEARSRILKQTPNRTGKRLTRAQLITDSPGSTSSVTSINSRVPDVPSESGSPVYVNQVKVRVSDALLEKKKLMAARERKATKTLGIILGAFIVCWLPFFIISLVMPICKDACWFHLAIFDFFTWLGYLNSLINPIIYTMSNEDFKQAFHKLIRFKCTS
Sequence of Sodium-dependent dopamine transporter (Q01959 whole entry): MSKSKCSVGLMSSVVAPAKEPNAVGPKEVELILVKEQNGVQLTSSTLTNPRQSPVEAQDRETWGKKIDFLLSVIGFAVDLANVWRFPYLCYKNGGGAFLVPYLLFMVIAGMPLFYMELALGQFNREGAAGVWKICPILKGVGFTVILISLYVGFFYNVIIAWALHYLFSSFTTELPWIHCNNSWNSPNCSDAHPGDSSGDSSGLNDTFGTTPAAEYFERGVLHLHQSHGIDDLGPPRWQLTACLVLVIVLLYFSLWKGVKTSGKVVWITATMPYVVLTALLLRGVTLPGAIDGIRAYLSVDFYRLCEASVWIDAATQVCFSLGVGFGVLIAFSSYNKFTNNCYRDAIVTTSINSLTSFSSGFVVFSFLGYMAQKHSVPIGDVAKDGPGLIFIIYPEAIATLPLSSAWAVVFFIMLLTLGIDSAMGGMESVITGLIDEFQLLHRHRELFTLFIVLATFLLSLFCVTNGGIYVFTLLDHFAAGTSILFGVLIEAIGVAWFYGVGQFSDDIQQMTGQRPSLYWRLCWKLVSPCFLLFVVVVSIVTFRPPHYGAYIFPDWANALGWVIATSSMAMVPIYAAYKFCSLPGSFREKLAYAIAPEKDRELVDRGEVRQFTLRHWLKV
Sequence of Alpha-2C adrenergic receptor (Homo sapiens) (P18825 whole entry): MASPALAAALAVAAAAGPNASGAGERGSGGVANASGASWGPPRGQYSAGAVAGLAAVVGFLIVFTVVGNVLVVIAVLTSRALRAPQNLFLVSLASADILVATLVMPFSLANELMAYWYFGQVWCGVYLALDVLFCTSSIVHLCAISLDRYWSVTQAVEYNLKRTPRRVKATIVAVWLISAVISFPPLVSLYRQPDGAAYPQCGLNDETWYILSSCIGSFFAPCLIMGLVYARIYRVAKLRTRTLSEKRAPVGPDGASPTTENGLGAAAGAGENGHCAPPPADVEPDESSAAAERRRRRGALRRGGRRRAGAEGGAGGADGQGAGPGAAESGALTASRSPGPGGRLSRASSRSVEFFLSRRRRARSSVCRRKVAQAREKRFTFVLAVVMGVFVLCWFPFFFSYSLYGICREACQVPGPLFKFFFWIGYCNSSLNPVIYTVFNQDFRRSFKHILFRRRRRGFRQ

For `O=C(NCCCn1ccnc1)c1cc2nc(-c3ccccc3)cc(-c3ccccc3)n2n1`, the pKi (as a rule, the Ki on a negative log10 scale, so that one unit is a factor of ten) is 6.32 in test [1] (read-out: Ki); 6.50 and 6.66 in test [2] (read-out: Ki); 6.05 in test [3]; 5.42 in [4]; 5.45 in [5]; 5.72 in [6]. For the same molecule, the Ki in test [1] (read-out: pKi (converted)) was 407 nM; in [2] (read-out: pKi (converted)), 195 nM; in test [7] it was 9.9 nM (active). The IC50 (as a rule, the concentration that inhibits the measured activity by half) in [8] is 1200 nM (active); in test [9] it was > 60000 nM (not active). Besides, the inhibition (as a rule, the drop in the measured response relative to a control, in per cent) in test [10] is 62.1%; in test [11], 69.9%; in test [12], 68.5%; in test [13] it was 98.9%; in test [14] it was 75%; in test [15], 75.1%. Further, the inhibition in [16] was 70.3%; in test [17], 74.1%; in [18] it was 59.8%; in test [19], 58.8%; in [20], 56.8%; in test [21], 63%. Moreover, the inhibition was 62.8% in test [22], 42.2% in test [23], 20.1% in test [24] and 28.1% in test [25].
Turning to `CC(=O)Nc1ccc(-c2cc(-c3ccccc3)nc3cc(C(=O)NCCCn4ccnc4)nn23)cc1`, the pKi in [26] is 5.44; in test [27] it was 5.47; in [28] (read-out: Ki), 5.18; in test [29], 5.01; in test [30], 5.88. Moreover, the Ki in test [28] (read-out: pKi (converted)) is 6610 nM. The IC50 in test [31] is > 31000 nM (not active). Further, the inhibition in test [32] was -8.97%; in [23] it was 10.8%; in test [24], -1.48%; in test [33], 25.9%; in [25], 39.3%.
